From ChEMBL document CHEMBL4402535, “Ellagic acid a multi-target bioactive compound for drug discovery in CNS? A narrative review” (Eur J Med Chem, 2019)

What was measured:
[1] = Antioxidant activity assessed as O2 radical scavenging activity after 1 hr; assay type: functional
[2] = target: T1, Amyloid-beta precursor protein (Homo sapiens, UniProt P05067); test: Inhibition of beta amyloid in human SH-SY5Y cells; assay type: cell-based
[3] = target: T1, Amyloid-beta precursor protein; test: Inhibition of beta amyloid (unknown origin) after 12 to 24 hrs
[4] = Antioxidant activity assessed as DPPH radical scavenging activity; assay type: functional
[5] = target: Acetylcholinesterase (Electrophorus electricus, UniProt O42275); test: Inhibition of electric eel AChE using acetylthiocholine iodide as substrate measured at 1 min intervals for 5 mins by Ellman's method
[6] = Antioxidant activity assessed as NO radical scavenging activity after 1 hr; assay type: functional
[7] = target: T2, Amine oxidase [flavin-containing] A (Homo sapiens, UniProt P21397); test: Inhibition of MAO-A (unknown origin)
T2 sequence (P21397 whole entry): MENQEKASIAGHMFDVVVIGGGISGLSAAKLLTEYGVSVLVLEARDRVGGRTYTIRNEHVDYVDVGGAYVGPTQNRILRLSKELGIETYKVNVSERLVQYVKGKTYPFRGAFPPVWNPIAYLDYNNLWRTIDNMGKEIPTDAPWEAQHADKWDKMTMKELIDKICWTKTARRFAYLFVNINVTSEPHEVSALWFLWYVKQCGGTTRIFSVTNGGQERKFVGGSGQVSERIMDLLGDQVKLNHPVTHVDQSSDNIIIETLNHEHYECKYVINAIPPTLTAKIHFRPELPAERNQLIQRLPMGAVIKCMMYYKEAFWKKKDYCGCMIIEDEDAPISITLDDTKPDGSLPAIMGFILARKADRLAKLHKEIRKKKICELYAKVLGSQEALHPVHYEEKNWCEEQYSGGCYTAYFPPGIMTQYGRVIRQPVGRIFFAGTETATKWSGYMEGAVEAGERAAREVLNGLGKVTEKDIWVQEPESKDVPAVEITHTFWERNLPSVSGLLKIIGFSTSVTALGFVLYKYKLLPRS

[8] = Antioxidant activity assessed as DPPH radical scavenging activity after 1 hr; assay type: functional
[9] = target: Salmon testes DNA; test: Binding affinity to salmon DNA isolated from testis using dopamine as substrate in presence of CuCl2; assay type: nucleic-acid assay, Salmonidae
[10] = target: Acetylcholinesterase (Electrophorus electricus) (UniProt O42275); test: Inhibition of electric eel AChE using acetylthiocholine iodide as substrate
[11] = target: Cholinesterase (Equus caballus) (UniProt P81908); test: Inhibition of equine serum BuChE using S-butyrylthiocholine chloride as substrate
Sequence of Cholinesterase (Equus caballus) (P81908 whole entry): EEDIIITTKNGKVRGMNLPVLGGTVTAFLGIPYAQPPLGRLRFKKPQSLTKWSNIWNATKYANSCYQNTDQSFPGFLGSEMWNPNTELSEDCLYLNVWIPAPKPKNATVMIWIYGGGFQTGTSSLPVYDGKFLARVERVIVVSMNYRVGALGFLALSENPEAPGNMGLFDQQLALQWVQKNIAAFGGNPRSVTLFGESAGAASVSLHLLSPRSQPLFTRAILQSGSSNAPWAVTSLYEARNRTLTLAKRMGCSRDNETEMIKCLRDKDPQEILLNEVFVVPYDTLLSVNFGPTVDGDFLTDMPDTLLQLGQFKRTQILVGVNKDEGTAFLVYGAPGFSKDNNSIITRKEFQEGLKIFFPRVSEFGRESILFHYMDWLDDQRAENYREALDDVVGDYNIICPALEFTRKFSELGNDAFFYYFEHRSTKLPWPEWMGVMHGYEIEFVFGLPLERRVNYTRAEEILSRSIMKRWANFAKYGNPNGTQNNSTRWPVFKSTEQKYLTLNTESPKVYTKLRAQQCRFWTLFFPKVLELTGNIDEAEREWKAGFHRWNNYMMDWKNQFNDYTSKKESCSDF

T1 sequence (P05067 whole entry): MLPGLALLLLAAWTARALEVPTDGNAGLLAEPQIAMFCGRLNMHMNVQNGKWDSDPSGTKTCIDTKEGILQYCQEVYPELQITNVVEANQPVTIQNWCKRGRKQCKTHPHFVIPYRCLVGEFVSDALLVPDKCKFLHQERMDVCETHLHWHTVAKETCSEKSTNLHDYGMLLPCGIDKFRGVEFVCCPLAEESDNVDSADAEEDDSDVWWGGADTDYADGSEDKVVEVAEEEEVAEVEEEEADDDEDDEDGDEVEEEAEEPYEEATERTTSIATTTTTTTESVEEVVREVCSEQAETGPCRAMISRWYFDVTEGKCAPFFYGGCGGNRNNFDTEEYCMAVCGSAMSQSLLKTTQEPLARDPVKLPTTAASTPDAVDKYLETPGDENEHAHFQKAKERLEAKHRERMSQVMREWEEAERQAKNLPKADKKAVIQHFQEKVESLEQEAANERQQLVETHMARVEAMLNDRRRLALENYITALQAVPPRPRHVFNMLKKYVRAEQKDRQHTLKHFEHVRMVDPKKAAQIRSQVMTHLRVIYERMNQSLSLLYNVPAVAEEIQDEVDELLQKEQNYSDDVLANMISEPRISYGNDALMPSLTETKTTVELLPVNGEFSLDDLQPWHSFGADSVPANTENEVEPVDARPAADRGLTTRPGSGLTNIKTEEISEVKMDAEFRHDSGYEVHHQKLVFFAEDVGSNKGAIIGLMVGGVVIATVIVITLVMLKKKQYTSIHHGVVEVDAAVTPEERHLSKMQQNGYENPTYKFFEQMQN
Sequence of Acetylcholinesterase (O42275 whole entry): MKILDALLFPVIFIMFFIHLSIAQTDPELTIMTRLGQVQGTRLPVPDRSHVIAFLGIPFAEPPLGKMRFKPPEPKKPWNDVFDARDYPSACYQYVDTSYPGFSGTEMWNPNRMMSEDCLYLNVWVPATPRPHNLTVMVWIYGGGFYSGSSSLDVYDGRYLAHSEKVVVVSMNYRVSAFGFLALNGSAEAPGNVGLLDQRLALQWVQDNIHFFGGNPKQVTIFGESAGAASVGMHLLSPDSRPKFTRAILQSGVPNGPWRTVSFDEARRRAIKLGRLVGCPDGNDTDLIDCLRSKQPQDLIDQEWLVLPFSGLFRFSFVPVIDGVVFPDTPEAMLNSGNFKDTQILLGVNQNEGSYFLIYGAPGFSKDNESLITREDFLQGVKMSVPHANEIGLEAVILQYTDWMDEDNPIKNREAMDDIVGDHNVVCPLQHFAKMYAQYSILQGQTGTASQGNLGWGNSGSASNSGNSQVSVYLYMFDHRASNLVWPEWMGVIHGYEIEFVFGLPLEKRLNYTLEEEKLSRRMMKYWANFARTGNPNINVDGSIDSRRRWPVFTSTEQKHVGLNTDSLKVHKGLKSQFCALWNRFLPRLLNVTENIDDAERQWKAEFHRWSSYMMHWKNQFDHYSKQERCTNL
Sequence of Acetylcholinesterase (Electrophorus electricus) (O42275 24-633 limits assumed): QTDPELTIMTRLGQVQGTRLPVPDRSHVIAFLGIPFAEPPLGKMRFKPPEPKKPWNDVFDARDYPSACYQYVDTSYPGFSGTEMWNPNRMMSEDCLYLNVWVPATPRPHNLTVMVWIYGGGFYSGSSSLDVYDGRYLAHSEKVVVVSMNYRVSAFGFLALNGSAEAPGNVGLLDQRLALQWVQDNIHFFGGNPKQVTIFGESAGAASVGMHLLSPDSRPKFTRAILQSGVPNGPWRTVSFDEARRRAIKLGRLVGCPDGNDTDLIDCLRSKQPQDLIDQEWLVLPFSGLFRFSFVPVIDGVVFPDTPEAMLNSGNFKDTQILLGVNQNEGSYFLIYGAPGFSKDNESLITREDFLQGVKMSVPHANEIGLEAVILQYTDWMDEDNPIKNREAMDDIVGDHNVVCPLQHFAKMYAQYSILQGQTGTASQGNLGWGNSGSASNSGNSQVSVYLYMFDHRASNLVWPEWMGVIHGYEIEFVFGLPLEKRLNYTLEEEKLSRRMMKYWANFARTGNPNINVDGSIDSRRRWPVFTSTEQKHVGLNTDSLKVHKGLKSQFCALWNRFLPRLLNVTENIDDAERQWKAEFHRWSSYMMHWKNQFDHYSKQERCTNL

O=c1oc2c(O)c(O)cc3c(=O)oc4c(O)c(O)cc1c4c23 [ELLAGIC ACID] showed an EC50 [1] of 177 µM, an IC50 [2] of 300 µM and an IC50 [3] of 100 to 300 µM. It also gave an EC50 [4] of 6.9 µM, an IC50 [5] of 133 µM and an EC50 [6] of 24.2 µM. For the same compound, the EC50 [7] was 1.6 µM, the IC50 [8] was 31.1 µM and the IC50 [9] was 1 to 150 µM. For the same compound, the EC24 [10] was 250 µM and the EC16 [11] was 250 µM.
